# Columns and labels:
# [1] = tested on: panel of 284 kinases; assay: KinaseProfiler radiometric assay platform (Millipore); format: biochemical; conditions: competition with ATP
# From the text: Kinase assay system #3. KinaseProfiler™ and PhosphataseProfiler™ assay platforms (Millipore). This platform is radiometric-based (considered gold standard). It measures competition with respect to ATP for kinases and substrate protein for phosphatases. Most proteins were expressed via an insect-based system, and it evaluates a panel of 284 kinases and 20 phosphatases. […] Important negative findings include: MKK4, MKK6, p38 MAPK, MAPKAPK2, RAF1, ERK, MEK1, JNK1, 2 and 3, and numerous other MAPK cascade-associated kinases.
# [2] = tested on: human PCa PC3-M cell orthotopic implants; assay: Murine orthotopic implantation model of human PCa (lung metastasis); format: in vivo, athymic mice; conditions: mice treated as in FIG. 2a
# Procedure: Cohorts of N=12 athymic mice bearing human PCa PC3-M cell orthotopic implants (a), or of N=5 non-tumor bearing athymic mice (b), were treated with KBU2046 incorporated into chow, and resultant lung metastasis (a) or plasma KBU2046 concentration (b) measured. Values are the mean±SEM. The relationship between dose and metastasis was evaluated by two-sided ANOVA (a). FIG. 2c a comprehensive characterization of KBU2046 pharmacokinetics. CD1 mice were dosed with 100 mg KBU2046/kg via oral gavage or intravenous injection (iv), and blood collected at the indicated time points (data from mice dosed at 25 mg/kg are in FIG. 12, and corroborate 100 mg/kg findings). […] The dotted horizontal line denotes a concentration of 24 nM, which was the concentration of KBU2046 measured in the blood of mice whose metastasis were suppressed by 92% (a-b). […]
# Prostate cancer: orthotopic implantation. Orthotopic implantation of human GFP-PC3-M PCa cells into 6-8 week male Balb/c athymic mice (Charles River Laboratories) and quantification of distant metastasis was performed as described (Pavese, J. et al., J Vis Exp, e50873 (2013)). […] Metastasis were scored in a blinded fashion. Specifically, animals were assigned an ID number, resultant histologic slides contained a separate pathological ID number, slides were scored in a random fashion, after which the two numbers were linked up.
# [3] = biological target: T1, MKK4 (Homo sapiens, UniProt P45985, S257E/T261E); assay: Fluorescence-based thermal shift assay, MKK4; format: binding; set-up: made in house
# T1 sequence (P45985 37-399 S257E/T261E): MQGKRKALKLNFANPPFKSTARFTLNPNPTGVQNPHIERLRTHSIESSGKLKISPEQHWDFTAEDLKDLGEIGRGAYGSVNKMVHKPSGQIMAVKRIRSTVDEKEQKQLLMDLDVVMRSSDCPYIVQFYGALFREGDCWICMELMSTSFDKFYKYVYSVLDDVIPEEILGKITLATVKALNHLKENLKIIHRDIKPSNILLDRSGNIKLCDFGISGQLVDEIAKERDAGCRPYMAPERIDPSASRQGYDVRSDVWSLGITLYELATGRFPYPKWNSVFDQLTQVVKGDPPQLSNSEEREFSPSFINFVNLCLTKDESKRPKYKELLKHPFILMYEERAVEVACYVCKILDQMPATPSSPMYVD
# Procedure: FIG. 16a is a depiction of established MKK4 pathway regulating human PCa cell metastasis. […] Values are the mean±SD (of N=2 replicates) increase in melting temperature (ΔTm) of purified recombinant MKK4 induced by the indicated concentrations of KBU2046 or genistein. […] The indicated concentrations of KBU2046 were added to recombinant activated MKK4, and its ability to phosphorylate kinase dead p38a MAPK (K53A) was measured by Western blot for total (p38 MAPK) and phosphorylated (pp38 MAPK) forms of p38 MAPK. […] PC3-M cells were pre-treated for 24 hours with 50 μM KBU2046 or genistein, as indicated, then with TGFβ, and Western blot performed. These findings are from a single experiment, with similar findings in identical separate experiments, repeated at least once.
# Biophysical and Biochemical Binding Assays. Fluorescent thermal shift (Krishna, S. N. et al., PLoS One 8, e81504 (2013)), isothermal titration calorimetry (Chavez, J. D. et al., Mol Cell Proteomics 12, 1451-67 (2013)), and biolayer interferometry assays (Makowska-Grzyska, M. et al., Biochemistry 51, 6148-63 (2012)), were performed using MEK4EE (37-399, S257E, T261E) cloned into pMCSG7 and KRX Competent E. coli cells (Promega Inc.) and full-length HSP90B and CDC37 vectors and Rosetta BL-21 and BL-21 DE-3 competent E. coli cells, respectively. […]
smiles,measurement,setting,value
"O=C1c2ccccc2OCC1c1ccc(F)cc1 (racemic) [KBU2046, (±)-3(4-fluorophenyl)chroman-4-one]",inhibition of kinase activity,[1],no evidence that KBU2046 inhibits kinase activity
same,primary tumor growth (tumor weight),[2],does not inhibit primary tumor cell growth
same,binding to MKK4,[3],did not bind to MKK4
